Results published in publication PMC11588265, “Auto QSAR-based active learning docking for hit identification of potential inhibitors of Plasmodium falciparum Hsp90 as antimalarial agents” (PLOS ONE, 2024).
Several values for one entry are separate records, joined by “and”; a condition that tells them apart may be missing. Equal entries are not always repeated. Where two headings read alike, the source gives them in different places. Blank lines part the entries; values can stand above or below the compound they belong to.

Key:
[1] = test system: P. falciparum 3D7; details: cited from earlier work
[2] = test system: human fibroblast cell line; design: method as in Everson et al., 2021; details: ref Everson et al., 2021, cited from earlier work
[3] = test system: HepG2; design: method as in Everson et al., 2021; details: ref Everson et al., 2021, cited from earlier work
[4] = biological target: PfHsp90-NTD (Plasmodium falciparum, UniProt Q8IC05); assay: Surface plasmon resonance (MP-SPR) binding to immobilized PfHsp90-NTD
PfHsp90-NTD, sequence (Q8IC05 entry or part of it): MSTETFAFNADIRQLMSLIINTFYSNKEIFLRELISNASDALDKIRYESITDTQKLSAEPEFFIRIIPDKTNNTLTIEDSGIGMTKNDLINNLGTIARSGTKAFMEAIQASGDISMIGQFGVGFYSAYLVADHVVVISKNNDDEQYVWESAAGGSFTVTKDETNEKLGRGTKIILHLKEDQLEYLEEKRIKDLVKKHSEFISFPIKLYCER
Method: The NTD of PfHsp90 was expressed and purified as described in [29] and 20μg/ml of the protein was used to study the binding affinities of selected ligands using BioNavis Navi 420A ILVES multi-parametric surface plasmon resonance (MP-SPR) system (BioNavis, Finland) as previously described. Briefly, PfHsp90-NTD was immobilized to a Carboxymethyl dextran coated sensor slide (BioNavis SPR102- CMD-3D). The sensor slide was activated with 0.1 M EDC/0.05 M NHS. At pH 5, PfHsp90-NTD suspended in 5 mM of sodium acetate was immobilized on one channel of the 3 CMD chip. 1 M ethanolamine HCl was used to deactivate the chip by removing excess NHS = EDC, and the sensor cleaned with NaCl/NaOH unspecific binding molecules. Varying concentrations (0-2000/5000 nM) of compounds FTN-T2 and FTN-T5 were injected and introduced to the flow cell, allowing binding to the surface. Data Viewer (BioNavis, Finland) and Trace Drawer software version 1.8 (Ridgeview instruments, Uppsala, Sweden) were used to process and analyze the steady-state equilibrium constant data and estimate the binding affinities.

[5] = test system: Chinese Hamster Ovarian (CHO) cells; assay: In vitro cytotoxicity, MTT assay, CHO cells; type: cell-based; details: for IC50: CHO cells, MTT, 48 h, read-out: In vitro IC50 Mammalian cells; for Mammalian cells (SI): selectivity index, CHO vs PfNF54
Method: (§1) Selectivity of the compounds for the parasites was determined using two cytotoxicity assays both of which were conducted at the H3D Centre. Compounds were screened against the mammalian cells, Chinese Hamster Ovarian (CHO) and hepatocellular carcinoma (HepG2), using the 3-(4,5-dimethylthiazol-2-yl)-2,5-diphenyltetrazoliumbromide (MTT) assay. Cells were plated to a density of 10^5 cells/well in 96-well plates and allowed to attach for 24h. After that compounds were added at various concentrations from 50μM to 16nM and the cells incubated for a further 48h. Emetine was used as the control. After that MTT was added and plates were read 4h later. ‘‘Survival” was plotted against concentration and the IC50-values were obtained using a non-linear dose-response curve fitting analysis via the Dotmatics software platform.

[6] = test system: P. falciparum NF54 strain; assay: In vitro anti-Plasmodium assay (parasite lactate dehydrogenase); type: cell-based; details: P. falciparum NF54 drug-sensitive strain, read-out: In vitro IC50 PfNF54
Method: In vitro anti-Plasmodial assays were conducted at the H3D testing centre at the University of Cape Town. All 15 commercially available compounds were evaluated for anti-Plasmodium activity using a parasite lactate dehydrogenase assay as a marker for parasite survival, as previously described by. Briefly, the parasites were synchronized at the ring stage using d-sorbitol in water. Approximately 2 mg/mL stock solutions of reference drugs, chloroquine and artesunate, were prepared in water and DMSO respectively then stored in -20°C. Test compounds and reference drugs were serially diluted to give 10 concentrations with a final volume of 100 μL in each well. Parasites were incubated in the presence of the compounds at 37°C under hypoxic conditions (4% CO2 and 3% O2 in N2) for 72 h. The absorbance was measured at 620 nm on a microplate reader. Survival was plotted against concentration and the IC50-values were obtained using a non-linear dose-response curve fitting analysis via the Dotmatics software platform.

[7] = test system: hepatocellular carcinoma (HepG2); assay: In vitro cytotoxicity, MTT assay, HepG2 cells; type: cell-based, human; details: for IC50: HepG2 cells, MTT, 48 h; for HepG2 (SI): selectivity index, HepG2 vs PfNF54
Method: as §1

[8] = test system: Plasmodium; details: known inhibitor; ref (11); read-out: anti-Plasmodium IC50; cited from earlier work
[9] = P. falciparum 3D7, chloroquine-sensitive strain, ref Everson et al., 2021, read-out: In vitro IC50 Pf3D7
[10] = Plasmodium falciparum, NF54, 72 h

SMILES: O=C(NCc1ccc2c(c1)OCO2)C1CCN(c2ncnc3onc(-c4cccc(F)c4)c23)CC1 [Compound 7]
IC50 [1, 9]: 0.98 ± 0.654 µM

SMILES: O=C(N[C@H]1CCc2ccccc21)C1CCN(c2ncccc2-c2nc(-c3ccccc3)no2)CC1 [Compound 10]
IC50 [1, 9]: 1.11 ± 0.97 µM
IC50 ([2]; human fibroblast cell line, read-out: In vitro IC50 Mammalian cells): > 24 µM
Mammalian cells (SI) ([2]; selectivity index): > 21
IC50 ([3]; HepG2, read-out: In vitro IC50 HepG2): > 24 µM
HepG2 (SI) ([3]; selectivity index): > 21

Kd ([4]; SPR, immobilized PfHsp90-NTD, read-out: equilibrium constant denoting affinity KD): 0.007 µM and 0.00711 µM
IC50 [6, 10]: 4.49 ± 1.51 µM
SMILES: Nc1ncnc2c1nc(Br)n2[C@@H]1O[C@H](CO)[C@@H](O)[C@H]1O [FTN-T2]
IC50 ([5]; Cricetulus griseus): > 50 µM
IC50 ([7]; Homo sapiens): 1.5 µM
HepG2 (SI) [7]: 0

Kd ([4]; read-out: equilibrium constant denoting affinity KD): 0.0199 µM and 0.019 µM
IC50 ([6]; 72 h): 1.44 ± 0.5 µM
IC50 [6, 10]: < 1.5 µM
SMILES: Cn1c(=O)ccn([C@@H]2O[C@H](CO)[C@@H](O)[C@H]2O)c1=O [FTN-T5]
average SI ([5]; CHO and HepG2 cell lines): ≥ 30
IC50 ([5]; Cricetulus griseus): > 50 µM
Mammalian cells (SI) [5]: > 35
selectivity index (SI) ([7]; HepG2/CHO cells vs PfNF54): ≥ 29
IC50 ([7]; Homo sapiens): 42.3 µM
HepG2 (SI) [7]: 29

IC50 ([6]; 72 h): 4.86 ± 1.14 µM
SMILES: Nc1nc2c(ncn2[C@H]2C[C@H](F)[C@@H](CO)O2)c(=O)[nH]1 [FTN-T9]
IC50 [5]: > 50 µM
Mammalian cells (SI) [5]: > 10
IC50 [7]: > 50 µM
HepG2 (SI) [7]: > 10

SMILES: COC1=C2C[C@@H](C)C[C@H](OC)[C@H](O)[C@@H](C)/C=C(\C)[C@H](OC(N)=O)[C@@H](OC)/C=C\C=C(/C)C(=O)NC(=CC1=O)C2=O [Geldanamycin, geldanamycin]
IC50 [8]: 0.02 µM

SMILES: COc1ccc2c(c1)[nH]c1c(C)nccc12 [Harmine, reference compound]
Kd ([4]; equilibrium constant denoting affinity KD, SPR, immobilized PfHsp90-NTD): 0.0182 µM
IC50 ([1]; P. falciparum, ref Shahinas et al., 2010, read-out: In vitro IC50 PfNF54/ Pf3D7): 0.05 µM
